Assay results published in patent US10988477B2 (Merck Patent GmbH, priority 2018, dated 2021).
pIC50, pKi: −log10 of the molar value. Read-outs that look alike come from different tables or passages of the source.

Tests used:
[1] = target: intracellular GCN2 (phosphorylation of the GCN2 substrate eIF2α) (Homo sapiens, UniProt Q9P2K8); assay: GCN2 cellular inhibition assay (AlphaScreen SureFire P-eIF2α Ser51, borrelidin-treated U2OS cells); format: cell-based
Outline: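 Borrelidin at 10 μM is added to U2OS cells immediately after compound (4-fold dilution series, 40 μM top final) for 1 h at 37 °C. Phosphorylated eIF2α Ser51 in lysates is quantified by AlphaScreen and expressed as percent inhibition against borrelidin-stimulated controls.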

[2] = target: GCN2 kinase (Homo sapiens, UniProt Q9P2K8); assay: GCN2 enzyme inhibition assay (Transcreener ADP2 fluorescence polarization); format: biochemical; conditions: 280 μM ATP
Sequence of GCN2 kinase (Q9P2K8 whole entry): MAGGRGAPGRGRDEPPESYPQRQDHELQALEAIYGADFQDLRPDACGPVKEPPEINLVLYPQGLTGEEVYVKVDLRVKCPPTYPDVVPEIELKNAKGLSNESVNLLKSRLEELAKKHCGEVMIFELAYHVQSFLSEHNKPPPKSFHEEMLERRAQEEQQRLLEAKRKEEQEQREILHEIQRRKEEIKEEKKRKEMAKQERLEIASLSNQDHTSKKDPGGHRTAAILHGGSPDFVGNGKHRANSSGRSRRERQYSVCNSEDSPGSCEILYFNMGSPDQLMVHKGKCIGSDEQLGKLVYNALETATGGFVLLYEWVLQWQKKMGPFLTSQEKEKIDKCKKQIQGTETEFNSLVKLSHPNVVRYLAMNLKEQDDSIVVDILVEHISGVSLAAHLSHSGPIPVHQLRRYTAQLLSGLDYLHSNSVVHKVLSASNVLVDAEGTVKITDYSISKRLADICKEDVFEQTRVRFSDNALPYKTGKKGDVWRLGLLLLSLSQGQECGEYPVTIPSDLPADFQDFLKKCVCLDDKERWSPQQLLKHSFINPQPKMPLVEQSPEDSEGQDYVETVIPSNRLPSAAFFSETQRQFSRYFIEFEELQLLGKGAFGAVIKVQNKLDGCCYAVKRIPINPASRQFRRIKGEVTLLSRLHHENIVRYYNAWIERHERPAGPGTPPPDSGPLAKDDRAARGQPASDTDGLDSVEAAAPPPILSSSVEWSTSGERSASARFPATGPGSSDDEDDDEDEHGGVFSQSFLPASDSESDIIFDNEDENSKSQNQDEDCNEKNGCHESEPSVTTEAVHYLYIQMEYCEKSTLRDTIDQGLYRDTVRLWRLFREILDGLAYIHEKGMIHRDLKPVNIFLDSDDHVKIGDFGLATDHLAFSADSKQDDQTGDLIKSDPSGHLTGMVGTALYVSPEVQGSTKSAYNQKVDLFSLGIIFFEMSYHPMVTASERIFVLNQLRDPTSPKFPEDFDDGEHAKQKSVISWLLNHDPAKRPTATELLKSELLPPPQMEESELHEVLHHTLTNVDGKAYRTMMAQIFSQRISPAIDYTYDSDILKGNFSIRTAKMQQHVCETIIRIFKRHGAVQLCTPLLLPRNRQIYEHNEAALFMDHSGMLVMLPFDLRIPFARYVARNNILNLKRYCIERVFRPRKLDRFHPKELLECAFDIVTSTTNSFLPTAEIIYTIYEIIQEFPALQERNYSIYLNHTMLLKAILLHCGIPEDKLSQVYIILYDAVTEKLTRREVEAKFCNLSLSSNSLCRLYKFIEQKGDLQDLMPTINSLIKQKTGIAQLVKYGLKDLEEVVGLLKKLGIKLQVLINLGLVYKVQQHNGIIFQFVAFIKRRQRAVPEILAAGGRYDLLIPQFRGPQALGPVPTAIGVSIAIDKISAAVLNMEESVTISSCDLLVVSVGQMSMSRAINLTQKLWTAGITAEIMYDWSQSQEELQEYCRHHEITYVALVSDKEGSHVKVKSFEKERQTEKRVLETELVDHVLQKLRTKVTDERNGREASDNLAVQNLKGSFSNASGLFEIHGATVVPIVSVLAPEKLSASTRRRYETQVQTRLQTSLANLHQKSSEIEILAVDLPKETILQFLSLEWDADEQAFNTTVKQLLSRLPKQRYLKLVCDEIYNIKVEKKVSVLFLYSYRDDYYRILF
Outline: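 Kinase activity is followed as ADP formation, measured by fluorescence polarization, using 4 nM enzyme with 280 μM ATP and 200 μM (RS)7 peptide at pH 7.5 and 25 °C for 1 h. Values come from a non-linear tight-binding fit.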

[3] = compounds of Formula II, biomarker assay, phosphorylated eIF2α Ser51 in borrelidin-treated U2OS cells
[4] = compounds of Formula II, 4 nM GCN2 kinase
[5] = compounds of Formula IV, biomarker assay, phosphorylated eIF2α Ser51 in borrelidin-treated U2OS cells
[6] = Enzyme activity for compounds of Formula IV, Ki(app), 25° C.
[7] = compounds of Formula III, U2OS cells, 10 μM borrelidin, 1 h, read-out: GCN2 Biomarker (IC50)
[8] = compounds of Formula III, 4 nM GCN2 kinase

Sequence of intracellular GCN2 (phosphorylation of the GCN2 substrate eIF2α) (Q9P2K8 whole entry): as above

Compound | pIC50 [1, 3] | pKi [2, 4] | pIC50 [1, 5] | pKi [2, 6] | other results
NS(=O)(=O)CCC1CN(c2cc(-c3cnc4ccc(C(F)F)nn34)ncn2)CCO1 (centres unmarked) [II-318, 2-(4-(6-(6-(Difluoromethyl)imidazo[1,2-b]pyridazin-3-yl)pyrimidin-4-yl)morpholin-2-yl)ethane-1-sulfonamide] | 5.30 to 6.30 | 6.00 to 8.00 | – | – | –
FC(F)(F)c1cn2c(-c3nccc(N4CCC(Oc5cn[nH]c5)C4)n3)cnc2cn1 (centres unmarked) [IV-695, 3-(4-(3-((1H-Pyrazol-4-yl)oxy)pyrrolidin-1-yl)pyrimidin-2-yl)-6-(trifluoromethyl)imidazo[1,2-a]pyrazine] | – | – | < 5.30 | 7.00 to 8.00 | –
CC1CC(CNS(C)(=O)=O)C(C)N(c2cc(-c3cnc4ccc(C(F)F)nn34)ncn2)C1 (single isomer, unassigned) [II-545, N-((1-(6-(6-(Difluoromethyl)imidazo[1,2-b]pyridazin-3-yl)pyrimidin-4-yl)-2,5-dimethylpiperidin-3-yl)methyl)methanesulfonamide] | 5.30 to 6.30 | 6.00 to 8.00 | – | – | –
NC(=O)C1CN(c2cc(-c3cnc4ccc(C(F)F)nn34)ccn2)CCO1 (centres unmarked) [II-135, 4-(4-(6-(Difluoromethyl)imidazo[1,2-b]pyridazin-3-yl)pyridin-2-yl)morpholine-2-carboxamide] | 5.30 to 6.30 | 6.00 to 8.00 | – | – | –
N#CCC1CCCN(c2cc(-c3cnc4ccc(C(F)F)nn34)ncn2)C1 (centres unmarked) [II-299, 2-(1-(6-(6-(Difluoromethyl)imidazo[1,2-b]pyridazin-3-yl)pyrimidin-4-yl)piperidin-3-yl)acetonitrile] | 5.30 to 6.30 | 6.00 to 8.00 | – | – | –
C[C@H]1C[C@@H](c2cn[nH]c2)CN(c2ccnc(-c3cnc4cnc(C(F)(F)F)cn34)n2)C1 [IV-771, 3-(4-((3S,5S)-3-methyl-5-(1H-pyrazol-4-yl)piperidin-1-yl)pyrimidin-2-yl)-6-(trifluoromethyl)imidazo[1,2-a]pyrazine] | – | – | > 6.30 | – | pIC50 ([2]; compounds of Formula IV, 4 nM GCN2 kinase): > 8.00
CS(C)(=O)=NC[C@@H]1CN(c2cc(-c3cnc4ccc(C(F)F)nn34)ncn2)CCO1 [II-10, [(2S)-4-[6-[6-(Difluoromethyl)imidazo[1,2-b]pyridazin-3-yl]pyrimidin-4-yl]morpholin-2-yl]methylimino-dimethyl-oxo-sulfane] | < 5.30 | 6.00 to 8.00 | – | – | –
CS(=O)(=O)NC[C@@H]1CN(c2cc(-c3cnc4ccc(C(F)(F)F)nn34)ncn2)CCO1 [II-292, (S)—N-((4-(6-(6-(Trifluoromethyl)imidazo[1,2-b]pyridazin-3-yl)pyrimidin-4-yl)morpholin-2-yl)methyl)methanesulfonamide] | 5.30 to 6.30 | 6.00 to 8.00 | – | – | –
Cn1cc(C(=O)N2CCCC(c3cc(-c4cnc5ccc(C(F)F)nn45)ncn3)C2)cn1 (centres unmarked) [II-41, (3-(6-(6-(Difluoromethyl)imidazo[1,2-b]pyridazin-3-yl)pyrimidin-4-yl)piperidin-1-yl)(1-methyl-1H-pyrazol-4-yl)methanone] | 5.30 to 6.30 | 6.00 to 8.00 | – | – | –
CC1CCN(c2ccnc(-c3cnc4cnc(C(F)F)cn34)n2)CC1C(N)=O (centres unmarked) [IV-108, 1-(2-(6-(Difluoromethyl)imidazo[1,2-a]pyrazin-3-yl)pyrimidin-4-yl)-4-methylpiperidine-3-carboxamide] | – | – | 5.30 to 6.30 | 7.00 to 8.00 | –
OCC1CCCN1c1ccnc(-c2cnc3cnc(C(F)(F)F)cn23)n1 (centres unmarked) [IV-436, (1-(2-(6-(Trifluoromethyl)imidazo[1,2-a]pyrazin-3-yl)pyrimidin-4-yl)pyrrolidin-2-yl)methanol] | – | – | < 5.30 | 6.00 to 7.00 | –
CC(=O)N1CCN(c2cc(-c3cnn4ccc(C(F)(F)F)nc34)ccn2)CC1 | – | – | – | – | pIC50 [1, 7]: < 5.30; pKi [2, 8]: 6.00 to 8.00
FC(F)c1ccc2ncc(-c3cc(N4Cc5ccncc5C4)ncn3)n2n1 [II-28, 3-(6-(1H-Pyrrolo[3,4-c]pyridin-2(3H)-yl)pyrimidin-4-yl)-6-(difluoromethyl)imidazo[1,2-b]pyridazine] | > 6.30 | 6.00 to 8.00 | – | – | –
CS(=O)(=O)NCC1CCCN(c2cc(-c3cnc4ccc(C(F)F)nn34)cc(OC3CNC3)n2)C1 (centres unmarked) [II-84, N-((1-(6-(Azetidin-3-yloxy)-4-(6-(difluoromethyl)imidazo[1,2-b]pyridazin-3-yl)pyridin-2-yl)piperidin-3-yl)methyl)methanesulfonamide] | 5.30 to 6.30 | > 8.00 | – | – | –
NS(=O)(=O)N1CCC2CCN(c3cc(-c4cnc5ccc(C(F)F)nn45)ncn3)C2C1 (centres unmarked) [II-344, 1-(6-(6-(Difluoromethyl)imidazo[1,2-b]pyridazin-3-yl)pyrimidin-4-yl)octahydro-6H-pyrrolo[2,3-c]pyridine-6-sulfonamide] | > 6.30 | > 8.00 | – | – | –
O=C1CCCC2CN(c3cc(-c4cnn5cccnc45)ccn3)CCN12 (centres unmarked) [III-16, 2-(4-(pyrazolo[1,5-a]pyrimidin-3-yl)pyridin-2-yl)octahydro-6H-pyrido[1,2-a]pyrazin-6-one] | – | – | – | – | pIC50 [1, 7]: < 5.30; pKi [2, 8]: < 6.00

Compound | pIC50 [1, 3] | pKi [2, 4] | pIC50 [1, 5] | pKi [2, 6] | other results
CCC1C(CNS(C)(=O)=O)CCCN1c1cc(-c2cnc3ccc(C(F)F)nn23)ncn1 (single isomer, unassigned) [II-416] | > 6.30 | > 8.00 | – | – | –
OCC12CC1CN(c1ccnc(-c3cnc4cnc(C(F)F)cn34)n1)C2 (centres unmarked) [IV-111, (3-(2-(6-(Difluoromethyl)imidazo[1,2-a]pyrazin-3-yl)pyrimidin-4-yl)-3-azabicyclo[3.1.0]hexan-1-yl)methanol] | – | – | < 5.30 | 6.00 to 7.00 | –
C[C@@H]1CCC[C@H](C)N1c1ccnc(-c2cnc3cnc(C(F)F)cn23)n1 [IV-122, 6-(Difluoromethyl)-3-(4-((2S,6R)-2,6-dimethylpiperidin-1-yl)pyrimidin-2-yl)imidazo[1,2-a]pyrazine] | – | – | < 5.30 | 6.00 to 7.00 | –
FC(F)(F)c1cn2c(-c3nccc(N4CCC(c5cn[nH]c5)C4)n3)cnc2s1 (centres unmarked) [Compound V-7, 5-[4-[3-(1H-Pyrazol-4-yl)pyrrolidin-1-yl]pyrimidin-2-yl]-2-(trifluoromethyl)imidazo[2,1-b]thiazole] | – | – | – | – | pIC50 ([1]; compounds of Formula V, U2OS cells, 10 μM borrelidin, 1 h, read-out: GCN2 Biomarker (IC50)): 5.30 to 6.30; pKi ([2]; compounds of Formula V, 4 nM GCN2 kinase): 7.00 to 8.00
CCc1ccc2ncc(-c3cc(N4CCO[C@H](CNS(C)(=O)=O)C4)ncn3)n2n1 [II-196, (S)—N-((4-(6-(6-Ethylimidazo[1,2-b]pyridazin-3-yl)pyrimidin-4-yl)morpholin-2-yl)methyl)methanesulfonamide] | < 5.30 | 6.00 to 8.00 | – | – | –
CS(=O)(=O)N1CC2CCN(c3cc(-c4cnc5ccc(C(F)F)nn45)ncn3)C2C1 (centres unmarked) [II-282, 6-(Difluoromethyl)-3-(6-(5-(methylsulfonyl)hexahydropyrrolo[3,4-b]pyrrol-1 (2H)-yl)pyrimidin-4-yl)imidazo[1,2-b]pyridazine] | < 5.30 | 6.00 to 8.00 | – | – | –
FC(F)c1ccc2ncc(-c3cc(C4CCOCC4)ncn3)n2n1 [II-358, 6-(Difluoromethyl)-3-(6-tetrahydropyran-4-ylpyrimidin-4-yl)imidazo[1,2-b]pyridazine] | < 5.30 | 6.00 to 8.00 | – | – | –
CC1CC(F)(F)C(CNS(C)(=O)=O)CN1c1cc(-c2cnc3ccc(C(F)F)nn23)ncn1 (single isomer, unassigned) [II-304, N-((1-(6-(6-(Difluoromethyl)imidazo[1,2-b]pyridazin-3-yl)pyrimidin-4-yl)-4,4-difluoro-6-methylpiperidin-3-yl)methyl)methanesulfonamide] | > 6.30 | > 8.00 | – | – | –
NC(=O)c1cn2c(-c3cccc(-c4cccc5[nH]ccc45)n3)cnc2cn1 [IV-225, 3-(6-(1H-Indol-4-yl)pyridin-2-yl)imidazo[1,2-a]pyrazine-6-carboxamide] | – | – | 5.30 to 6.30 | 7.00 to 8.00 | –
CC1CCCN(c2ccnc(-c3cnc4cnc(C(F)(F)F)cn34)n2)C1 (centres unmarked) [IV-424, 3-(4-(3-Methylpiperidin-1-yl)pyrimidin-2-yl)-6-(trifluoromethyl)imidazo[1,2-a]pyrazine] | – | – | < 5.30 | 6.00 to 7.00 | –
O=C1CCCC2CN(c3cc(-c4cnc5ccc(Cl)nn45)ccn3)CCN12 (centres unmarked) [II-207, 2-(4-(6-Chloroimidazo[1,2-b]pyridazin-3-yl)pyridin-2-yl)hexahydro-1H-pyrido[1,2-a]pyrazin-6(2H)-one] | < 5.30 | 6.00 to 8.00 | – | – | –
CC(C)(O)C1CC(c2cn[nH]c2)CN(c2ccnc(-c3cnc4cnc(C(F)(F)F)cn34)n2)C1 (single isomer, unassigned) [IV-684, 2-(5-(1H-Pyrazol-4-yl)-1-(2-(6-(trifluoromethyl)imidazo[1,2-a]pyrazin-3-yl)pyrimidin-4-yl)piperidin-3-yl)propan-2-ol] | – | – | > 6.30 | > 8.00 | –
CS(=O)(=O)NC[C@H]1CCCN(c2ccnc(-c3cnc4cnc(C(F)F)cn34)n2)C1 [IV-29, (S)—N-((1-(2-(6-(Difluoromethyl)imidazo[1,2-a]pyrazin-3-yl)pyrimidin-4-yl)piperidin-3-yl)methyl)methanesulfonamide] | – | – | < 5.30 | 6.00 to 7.00 | –
CC(=O)N1CCN(c2ccnc(-c3cnc4cnc(C(N)=O)cn34)n2)CC1 [IV-36, 3-(4-(4-Acetylpiperazin-1-yl)pyrimidin-2-yl)imidazo[1,2-a]pyrazine-6-carboxamide] | – | – | < 5.30 | 6.00 to 7.00 | –
FC(F)(F)c1cn2c(-c3nccc(N4CCOC(c5ccncc5)C4)n3)cnc2cn1 (centres unmarked) [IV-724] | – | – | < 5.30 | < 6.00 | –
